Molecular target: T1, serotonin 5-HT6 receptor (Homo sapiens, UniProt P50406)
T1 construct: expressed in transfected cells
Test: Binding experiments on cloned 5-HT6 receptors (procedures of WO 98/27081)
Description: Binding Experiments on Cloned […] Receptors
Compounds can be tested following the procedures outlined in WO 98/27081.

T1 sequence (P50406 whole entry): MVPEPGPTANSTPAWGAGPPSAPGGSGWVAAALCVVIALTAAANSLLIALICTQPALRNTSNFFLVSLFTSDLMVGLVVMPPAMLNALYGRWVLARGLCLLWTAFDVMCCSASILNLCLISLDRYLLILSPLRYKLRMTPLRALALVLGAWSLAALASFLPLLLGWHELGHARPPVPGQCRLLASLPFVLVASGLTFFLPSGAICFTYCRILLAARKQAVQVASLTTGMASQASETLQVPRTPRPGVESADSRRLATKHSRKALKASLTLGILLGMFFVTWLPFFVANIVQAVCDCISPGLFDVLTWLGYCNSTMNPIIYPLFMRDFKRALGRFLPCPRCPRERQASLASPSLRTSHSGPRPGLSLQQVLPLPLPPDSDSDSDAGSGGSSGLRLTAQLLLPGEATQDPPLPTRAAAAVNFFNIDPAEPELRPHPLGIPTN

O=S(=O)(c1ccc2c(c1)CCNCC2)c1c[nH]c2ccccc12 [Example 43, 7-(3-(1H-indolyl)sulfonyl)-2,3,4,5-tetrahydro-1H-3-benzazepine]
Ki: 0.1 to 1 nM

— US20050176759A1, “7-sulfonyl-3-benzazepine derivatives as modulators of the dopamine receptor and their use for the treatment cns disorders” (priority 2001, published 2005)
